This note sets out measurements from PMC11083148, “Structure–Activity Relationship Studies on Highly Functionalized Pyrazole Hydrazones and Amides as Antiproliferative and Antioxidant Agents” (International Journal of Molecular Sciences, 2024).

One series concerns DU-145. The series is described as follows: NCI screening, Prostate Cancer. It is filed as cell-based. As to conditions: DU-145, Prostate Cancer; 10 µM. How it is done: (§1) In addition, 11a and 17 (representative compounds of the acylhydrazone and amide series) were selected by the National Cancer Institute (NCI, Germantown, MD, USA) and tested at a fixed concentration of 10 µM against a panel of fifty-nine different cancer cell lines, including highly metastatic tumors (Table 2).

For another series, the system named is PC-3. Nature of the series: NCI screening, Prostate Cancer. In kind it is cell-based. As to conditions: PC-3, Prostate Cancer; 10 µM. The method, then: as §1
In another series the test system is KM12. The series is described as follows: NCI screening, Colon Cancer. It is filed as cell-based. As to conditions: 10 µM. The method, then: as §1
A further series deals with HCC-2998. The series is described as follows: NCI screening, Colon Cancer. In kind it is cell-based. As to conditions: HCC-2998, Colon Cancer; 10 µM. How it is done:
as §1

A further series relates to COLO 205. The series is described as follows: NCI screening, Colon Cancer. As to conditions: COLO 205, Colon Cancer; 10 µM. It is filed as cell-based. The method, then:
as §1

The next series deals with washed platelets. The series is described as follows: Platelet aggregation (thrombin-induced, Born's method). In kind it is cell-based. As to conditions: Homo sapiens, 0.1 U/mL thrombin, mean ± SD, read-out: IC50 Aggregation inhibition. In outline: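 Washed human platelets (3.0 × 10^8/mL) were preincubated with compound at 37 °C for 3 min. Aggregation was then triggered with 0.1 U/mL thrombin and measured by Born's turbidimetric method, with IC50 values calculated from the response.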

A further series deals with GM-6114. The series is described as follows: MTT assay, cytotoxicity on normal fibroblasts. As to conditions: human, 48 h, 10 µM. It is filed as cell-based. On the technique in general: Formazan colour is commonly taken as a measure of viable cells.
Another series concerns CCRF-CEM. The series is described as follows: NCI screening, Leukemia. In kind it is cell-based. As to conditions: 10 µM. The method, then: as §1
A further series has as its system MOLT-4. The series is described as follows: NCI screening, Leukemia. It is filed as cell-based. As to conditions: MOLT-4, Leukemia; 10 µM. How it is done:
as §1

The next series deals with RPMI-8226. The series is described as follows: NCI screening, Leukemia. As to conditions: RPMI-8226, Leukemia; 10 µM. In kind it is cell-based. How it is done: as §1
A further series has as its system HeLa. The series is described as follows: MTT assay, antiproliferative activity. As to conditions: Homo sapiens; for activity at 10 µM: 48h, read-out: Mean Growth Percentage. In kind it is cell-based.
In another series the test system is MCF7. The series is described as follows: MTT assay, antiproliferative activity. In kind it is cell-based. As to conditions: Homo sapiens; for mean growth percentage (cell growth remaining vs control) at 10 µM: 48h.
A further series relates to SKMEL28. The series is described as follows: MTT assay, antiproliferative activity. As to conditions: Homo sapiens; for Mean growth percentage at 10 µM: SK-MEL-28, 10 µM, 48h. In kind it is cell-based.
In another series the test system is SKOV3. Nature of the series: MTT assay, antiproliferative activity. As to conditions: Homo sapiens; for Mean growth percentage at 10 µM: SK-OV-3, 10 µM, 48h. In kind it is cell-based.
The subject of a further series is SK-BR3. Nature of the series: MTT assay, antiproliferative activity. As to conditions: Homo sapiens, SK-BR-3, 48h. It is filed as cell-based. Put shortly:
(§2)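 Cells plated 16 h, then exposed to compounds at 10 μM final for 48 h at 37 °C, 5% CO2. MTT added for 4 h, formazan dissolved in DMSO, absorbance read at 570 nm; values as percent of DMSO-only control, mean of three experiments in six replicates.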

A further series relates to Hep-G2. The series is described as follows: MTT assay, antiproliferative activity. It is filed as cell-based. As to conditions: Homo sapiens, HepG2, 48h. Put shortly:
as §2

The next series deals with MDA-MB231. Nature of the series: MTT assay, antiproliferative activity. It is filed as cell-based. As to conditions: Homo sapiens, MDA-MB-231, 48h. In outline:
as §2

Broadly, the IC50 is the concentration that gives 50% inhibition. As usually defined, the melting point is the temperature of the solid-liquid transition.

Description for GM-6114: Pyrazole acylhydrazones 10–13 and amides 14–22 were tested by MTT assay to evaluate their antiproliferative and cytotoxicity properties against a panel of eight tumor cell lines and normal fibroblasts.
The following cell lines were used for MTT assays: SKOV-3 (ovarian adenocarcinoma, ATCC, Manassas, VA, USA); MCF-7 (breast adenocarcinoma, Biologic Bank and Cell Factory, IRCCS Policlinico San Martino, Genoa, Italy); Hep-G2 (hepatocellular carcinoma, ATCC, Manassas, VA, USA); SK-MEL28 (skin melanoma, Biologic Bank and Cell Factory, IRCCS Policlinico San Martino, Genoa, Italy), GM-6114 (embryonic human fibroblast, ATCC, Manassas, VA, USA); MDA-MB231 (breast adenocarcinoma, Biologic Bank and Cell Factory, IRCCS Policlinico San Martino, Genoa, Italy); HeLa (cervical adenocarcinoma, Biologic Bank and Cell Factory, IRCCS Policlinico San Martino, Genoa, Italy); SK-BR3 (breast andenocarcinoma, Biologic Bank and Cell Factory, IRCCS Policlinico San Martino, Genoa, Italy); A549 (lung carcinoma, Biologic Bank and Cell Factory, IRCCS Policlinico San Martino, Genoa, Italy); HUVEC (Human Umbilical Vein Endothelial Cells, ATCC, Manassas, VA, USA). All cell lines were grown in their medium with 10% FBS, 2 mM Glutamine, and 1% penstrep and incubated at 37 °C in 5% CO2 in a humidified environment. The cell lines were plated in 96-well plates at an adequate number to reach 80–90% confluence at the end of the assay. 16 h after cell plating, a 10 mM DMSO stock solution of the compounds was diluted in growth medium and added at a final working concentration of 10 μM. After 48h of incubation, a 2 mg/mL PBS solution of MTT (3-(4,5-dimethyl-2-thiazolyl)-2,5-diphenyl-2H-tetrazolium bromide) was added (30 μL/well). After 4h, the supernatant was removed, and the Formazan precipitates were dissolved in DMSO (100 μL/well). The 96-well plates were incubated for 20 min, and absorbance was measured at 570 nm using a plate reader. The results are expressed as a percentage ratio over control samples (100%) in which the cells were incubated with the same amount of DMSO but without compounds. Each value is the mean of three independent experiments run in six replicates.

In turn, `COc1ccc(/C=N/NC(=O)c2c(N)nn(C)c2Nc2ccccc2)cc1` [11a, (E)-3-amino-N′-(4-methoxybenzylidene)-1-methyl-5-(phenylamino)-1H-pyrazole-4-carbohydrazide] had a melting point of 208 to 210 °C. For the same molecule, the “Growth Percentage (%)” value with DU-145 was 76.34%. Besides, the “Growth Percentage (%)” value in the series with PC-3 was 55.90%. For the same molecule, the “Growth Percentage (%)” value in the series on KM12 was 27.82%. Besides, the “Growth Percentage (%)” value in the series on HCC-2998 came to 59.18%. Also, the “Growth Percentage (%)” value with COLO 205 was determined as 35.82%. Further, the IC50 in the series on washed platelets was 183 ± 13 µM. In the series on GM-6114, the “Mean Growth Percentage” value is recorded as 69.81%. Further, the “Growth Percentage (%)” value with CCRF-CEM is recorded as 38.45%. The “Growth Percentage (%)” value with MOLT-4 is 49.41%. Also, the “Growth Percentage (%)” value in the series with RPMI-8226 turned out to be 61.65%. Further, in the series on HeLa, the activity at 10 µM came to 25%. Further, in the series on HeLa (MTT), the IC50 stood at 4.63 ± 0.41 µM. The molecule further returned a mean growth percentage (cell growth remaining vs control) at 10 µM in the series with MCF7 of 33.6%. Moreover, the IC50 with MCF7 (MTT) is 6.9 ± 0.34 µM. In the series on SKMEL28, this molecule returned a Mean growth percentage at 10 µM of 49.4%. Further, in the series on SKMEL28 (SK-MEL-28, MTT), half-maximal inhibition (IC50) required 9.45 ± 0.66 µM. The molecule also yielded a Mean growth percentage at 10 µM in the series with SKOV3 of 43.6%. In the series with SKOV3 (SK-OV-3, MTT), this molecule returned an IC50 of 6.88 ± 0.23 µM. The molecule further had a Mean growth percentage at 10 µM in the series with SK-BR3 of 57%. The Mean growth percentage at 10 µM in the series on Hep-G2 came to 75%. The molecule further displayed a Mean growth percentage at 10 µM in the series on MDA-MB231 of 72%.
`CCOC(=O)c1c(NC(=O)C2CC2)nn(C)c1Nc1ccccc1` [compound 17, Ethyl 3-(cyclopropanecarboxamido)-1-methyl-5-(phenylamino)-1H-pyrazole-4-carboxylate]: the melting point is 144 to 145 °C. Besides, the “Growth Percentage (%)” value in the series with DU-145 worked out at 104.67%. Besides, the “Growth Percentage (%)” value in the series with PC-3 was 95.84%. For the same molecule, in the series on KM12, the “Growth Percentage (%)” value is 105.43%. Also, the “Growth Percentage (%)” value in the series with HCC-2998 amounted to 114.15%. Also, in the series with COLO 205, the “Growth Percentage (%)” value came to 106.91%. Also, the IC50 with washed platelets was found to be 460 µM. Also, in the series with GM-6114, the “Mean Growth Percentage” value is 65.92%. In addition, in the series with CCRF-CEM, the “Growth Percentage (%)” value is reported as 97.75%. Also, the “Growth Percentage (%)” value with MOLT-4 was determined as 101.92%. Moreover, the “Growth Percentage (%)” value with RPMI-8226 was 99.62%. Further, the activity at 10 µM in the series on HeLa turned out to be 109%. In addition, the mean growth percentage (cell growth remaining vs control) at 10 µM with MCF7 came to 92.8%. Moreover, the Mean growth percentage at 10 µM in the series on SKMEL28 is 85.9%. Also, the Mean growth percentage at 10 µM in the series with SKOV3 turned out to be 86.9%. The molecule further gave a Mean growth percentage at 10 µM with SK-BR3 of 106%. The same molecule returned a Mean growth percentage at 10 µM with Hep-G2 of 103%. The same molecule showed a Mean growth percentage at 10 µM in the series on MDA-MB231 of 127%.
